Values of other authors in patent publication US6838050B1, “Methods and devices for providing anti-infective activity to a medical device” (Oxibio, Inc., priority 1999, dated 2005).

Tests used:
[1] = system: bacteria and viruses
[2] = human

Question: Which results are given for II [free iodine, elemental iodine]?
Answer: free iodine level at which effective microbial killing occurs [1]: not less than 0.1 ppm; level in solution sufficient to kill bacteria and viruses [1]: A few parts per million; upper daily threshold for total iodine exposure posing no significant health threat [2]: ≤ 1000 micrograms per day; upper limit of solubility: ~320 ppm
